# Measured values: article PMC7101356, “Cross-site and cross-platform variability of automated patch clamp assessments of drug effects on human cardiac currents in recombinant cells” (Scientific Reports, 2020)
# What was measured:
# hERG [1] = biological target: T1, hERG (Homo sapiens, UniProt Q12809); parameters: expressed in transfected cells; host or cells: HEK293 or CHO, depending on site (site s06, Milnes protocol: HEK293); settings: physiologic temperatures; cited from earlier work
# late hNav1.5 = biological target: T2, late hNav1.5 (Homo sapiens, UniProt Q14524); test: Automated patch clamp, late hNav1.5 current block (ATX-II activated); format: cell-based
# T2 construct: expressed in transfected cells; host or cells: HEK293 or CHO, depending on site
# Method: However, all external solutions contained 30 nM ATX-II in order to activate late current. Late current was measured at its maximum during the repolarizing ramp.
# Concentration-response relationships for each test article were independently investigated, i.e., each cell received only one test article, typically evaluating multiple concentrations in a cumulative fashion (lowest to highest concentrations). However, some platforms tested only one concentration per well. Each concentration response was based on a minimum of four concentrations, with a minimum of three wells used for each concentration. In cases of high variability, more cells per concentration were recorded. Prior to drug addition, cells received an addition of vehicle to measure non-test article-related effects such as addition artifacts. At the end of the experiment, a supramaximal concentration of a known inhibitory reference compound was applied to assess leak current and appropriate responsiveness of the test system.
# (§1) The steady state current at each concentration was used to determine the concentration-response relationships. Mean concentration-response data were fitted to a standard sigmoidal four-parameter logistic equation (GraphPad Prism 7; GraphPad Inc., La Jolla, CA) of the form: Y=Bottom+(Top−Bottom)/(1+10^∧(LogIC50−X)∗HillSlope) where Y is the current inhibition (in % of pre-drug control), X is the logarithm of drug concentration, and IC50 is the drug concentration producing half-maximal current inhibition. Curve fitting was performed using the following constraints: Top = 100%, Bottom = 0%, Hill Slope <2. No curve fitting was performed in cases with an obvious lack of a concentration-dependent current inhibition and/or small effect size (approximately ≤20%).
# [2] = based on CiPA evaluations; cited from earlier work
# peak hNav1.5 = biological target: T3, peak hNav1.5 (Homo sapiens, UniProt Q14524); test: Automated patch clamp, peak hNav1.5 current block; format: cell-based
# T3 construct: expressed in transfected cells; host or cells: HEK293 or CHO, depending on site
# hERG [3] = biological target: T1, hERG; test: in vitro; settings: hERG K+ current inhibition, Mean
# hCav1.2 = hCav1.2 (Homo sapiens, UniProt Q13936); test: Automated patch clamp, hCav1.2 current block
# Method: Peak current was measured during the step to 0 mV. Leak current was measured after applying a saturating concentration of a blocker such as cadmium (200 µM) at the end of each experiment to completely block hCav1.2 current.
# Concentration-response relationships for each test article were independently investigated, i.e., each cell received only one test article, typically evaluating multiple concentrations in a cumulative fashion (lowest to highest concentrations). However, some platforms tested only one concentration per well. Each concentration response was based on a minimum of four concentrations, with a minimum of three wells used for each concentration. In cases of high variability, more cells per concentration were recorded. Prior to drug addition, cells received an addition of vehicle to measure non-test article-related effects such as addition artifacts. At the end of the experiment, a supramaximal concentration of a known inhibitory reference compound was applied to assess leak current and appropriate responsiveness of the test system. While it was recommended that a separate group of cells (n ≥ 3) be recorded for each experimental day to determine the baseline response to vehicle and to address day-to-day variability, this was not verified.
# These criteria were applied to all APC platforms.
# as §1
# [4] = site_platform s06_p4, 1.00E-09 mol/L
# [5] = site_platform s06_p4, 3.00E-07 mol/L
# [6] = site_platform s07_p6, 1.00E-09 mol/L
# [7] = site_platform s07_p6, 3.00E-07 mol/L
# [8] = site_platform s13_p2, 1.00E-09 mol/L
# [9] = site_platform s14_p1, 3.00E-07 mol/L
# Sequence of hCav1.2 (Q13936 whole entry): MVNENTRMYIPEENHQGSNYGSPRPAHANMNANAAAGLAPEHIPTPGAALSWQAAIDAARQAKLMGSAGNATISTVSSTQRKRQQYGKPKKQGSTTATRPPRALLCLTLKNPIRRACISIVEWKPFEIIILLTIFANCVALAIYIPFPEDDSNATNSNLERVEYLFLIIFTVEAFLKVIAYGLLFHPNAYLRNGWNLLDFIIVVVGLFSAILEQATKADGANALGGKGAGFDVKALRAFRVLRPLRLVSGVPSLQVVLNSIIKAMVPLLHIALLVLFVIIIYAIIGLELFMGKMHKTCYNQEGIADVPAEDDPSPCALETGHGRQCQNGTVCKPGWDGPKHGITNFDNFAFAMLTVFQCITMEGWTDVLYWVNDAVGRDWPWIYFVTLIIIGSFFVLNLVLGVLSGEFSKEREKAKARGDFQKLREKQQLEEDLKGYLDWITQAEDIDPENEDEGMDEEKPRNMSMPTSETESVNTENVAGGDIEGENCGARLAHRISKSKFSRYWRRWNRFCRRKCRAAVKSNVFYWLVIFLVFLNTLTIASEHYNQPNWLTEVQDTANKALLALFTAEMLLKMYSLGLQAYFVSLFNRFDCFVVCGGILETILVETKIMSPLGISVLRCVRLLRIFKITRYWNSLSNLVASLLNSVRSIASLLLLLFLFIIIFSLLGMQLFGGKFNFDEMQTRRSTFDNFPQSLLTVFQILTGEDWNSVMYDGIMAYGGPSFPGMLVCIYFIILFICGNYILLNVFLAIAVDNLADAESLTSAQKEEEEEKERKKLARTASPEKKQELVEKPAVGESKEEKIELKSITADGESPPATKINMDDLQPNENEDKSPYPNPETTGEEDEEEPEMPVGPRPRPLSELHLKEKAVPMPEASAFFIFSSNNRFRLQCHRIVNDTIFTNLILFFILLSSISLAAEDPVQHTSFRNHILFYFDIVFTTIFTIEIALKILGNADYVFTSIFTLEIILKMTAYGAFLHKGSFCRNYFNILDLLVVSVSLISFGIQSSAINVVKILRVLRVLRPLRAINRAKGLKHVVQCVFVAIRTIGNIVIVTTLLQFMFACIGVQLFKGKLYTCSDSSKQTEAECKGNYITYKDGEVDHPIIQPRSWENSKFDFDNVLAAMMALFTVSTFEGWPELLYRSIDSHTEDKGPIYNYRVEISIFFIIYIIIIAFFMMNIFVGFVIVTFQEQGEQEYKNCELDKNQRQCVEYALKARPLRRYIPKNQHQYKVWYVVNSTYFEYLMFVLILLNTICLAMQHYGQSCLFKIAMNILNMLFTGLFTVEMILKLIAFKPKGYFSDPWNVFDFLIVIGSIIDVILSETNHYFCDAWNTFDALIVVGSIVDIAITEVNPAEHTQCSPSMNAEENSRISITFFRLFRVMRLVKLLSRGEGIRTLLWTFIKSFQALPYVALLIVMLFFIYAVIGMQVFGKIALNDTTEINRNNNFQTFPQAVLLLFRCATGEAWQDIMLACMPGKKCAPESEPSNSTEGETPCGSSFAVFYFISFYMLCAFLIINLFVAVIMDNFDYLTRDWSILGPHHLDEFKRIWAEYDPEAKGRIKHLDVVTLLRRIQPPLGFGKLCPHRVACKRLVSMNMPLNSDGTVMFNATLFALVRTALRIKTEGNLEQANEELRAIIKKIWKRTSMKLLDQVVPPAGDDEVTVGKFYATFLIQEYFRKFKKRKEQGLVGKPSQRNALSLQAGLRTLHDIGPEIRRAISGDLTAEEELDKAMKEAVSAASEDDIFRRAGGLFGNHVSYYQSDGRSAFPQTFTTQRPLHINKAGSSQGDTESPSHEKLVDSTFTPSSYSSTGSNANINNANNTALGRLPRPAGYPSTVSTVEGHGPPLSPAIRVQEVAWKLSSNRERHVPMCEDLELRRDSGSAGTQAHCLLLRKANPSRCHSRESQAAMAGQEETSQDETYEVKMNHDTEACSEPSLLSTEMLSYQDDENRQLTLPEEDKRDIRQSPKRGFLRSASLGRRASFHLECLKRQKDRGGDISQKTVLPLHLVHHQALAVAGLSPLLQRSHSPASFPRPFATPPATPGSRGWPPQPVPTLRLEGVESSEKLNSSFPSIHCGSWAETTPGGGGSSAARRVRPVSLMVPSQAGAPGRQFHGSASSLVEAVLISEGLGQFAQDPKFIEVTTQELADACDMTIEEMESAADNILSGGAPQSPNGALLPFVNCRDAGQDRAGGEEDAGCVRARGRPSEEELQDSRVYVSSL
# Sequence of hCav1.2 (Q08289 whole entry partner): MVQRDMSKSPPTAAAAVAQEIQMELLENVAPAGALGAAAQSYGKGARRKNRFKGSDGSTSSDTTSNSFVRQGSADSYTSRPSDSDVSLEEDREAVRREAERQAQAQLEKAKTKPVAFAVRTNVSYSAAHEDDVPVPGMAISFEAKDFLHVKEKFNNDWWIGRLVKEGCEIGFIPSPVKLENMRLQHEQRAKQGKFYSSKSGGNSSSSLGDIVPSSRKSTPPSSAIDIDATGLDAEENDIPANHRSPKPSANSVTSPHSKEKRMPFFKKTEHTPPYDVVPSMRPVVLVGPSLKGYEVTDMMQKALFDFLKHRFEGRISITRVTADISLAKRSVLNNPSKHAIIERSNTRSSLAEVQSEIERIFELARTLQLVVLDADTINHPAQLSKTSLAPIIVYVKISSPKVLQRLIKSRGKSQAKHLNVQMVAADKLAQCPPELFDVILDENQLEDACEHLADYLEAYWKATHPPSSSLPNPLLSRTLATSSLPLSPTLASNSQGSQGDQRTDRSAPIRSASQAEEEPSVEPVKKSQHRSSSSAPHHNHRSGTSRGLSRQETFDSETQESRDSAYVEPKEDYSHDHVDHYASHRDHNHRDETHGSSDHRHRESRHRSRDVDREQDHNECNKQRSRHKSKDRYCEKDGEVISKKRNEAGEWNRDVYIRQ
# Sequence of hCav1.2 (P54289 25-956 partner limits assumed): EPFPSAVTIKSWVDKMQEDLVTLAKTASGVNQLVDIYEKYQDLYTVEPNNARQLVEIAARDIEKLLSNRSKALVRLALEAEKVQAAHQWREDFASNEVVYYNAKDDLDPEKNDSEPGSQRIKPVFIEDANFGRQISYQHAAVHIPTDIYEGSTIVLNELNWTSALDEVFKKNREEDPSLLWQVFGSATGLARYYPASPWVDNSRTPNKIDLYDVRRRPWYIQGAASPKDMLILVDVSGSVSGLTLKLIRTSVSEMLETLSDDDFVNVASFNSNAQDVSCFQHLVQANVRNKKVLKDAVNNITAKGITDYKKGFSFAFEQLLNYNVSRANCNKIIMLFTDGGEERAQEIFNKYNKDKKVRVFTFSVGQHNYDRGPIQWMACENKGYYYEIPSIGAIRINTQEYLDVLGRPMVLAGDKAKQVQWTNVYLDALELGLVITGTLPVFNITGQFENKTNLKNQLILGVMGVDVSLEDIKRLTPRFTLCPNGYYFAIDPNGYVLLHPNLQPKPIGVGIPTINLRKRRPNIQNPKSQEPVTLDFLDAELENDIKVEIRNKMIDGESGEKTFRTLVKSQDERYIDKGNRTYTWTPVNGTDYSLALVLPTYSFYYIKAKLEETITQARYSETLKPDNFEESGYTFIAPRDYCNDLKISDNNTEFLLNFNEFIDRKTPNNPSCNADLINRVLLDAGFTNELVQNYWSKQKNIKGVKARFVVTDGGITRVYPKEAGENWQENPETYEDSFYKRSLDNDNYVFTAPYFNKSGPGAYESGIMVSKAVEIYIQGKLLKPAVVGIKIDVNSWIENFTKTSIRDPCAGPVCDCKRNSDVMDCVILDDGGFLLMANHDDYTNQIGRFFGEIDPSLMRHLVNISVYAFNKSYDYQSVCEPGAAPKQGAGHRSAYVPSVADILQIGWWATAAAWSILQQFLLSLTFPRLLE
# Sequence of hCav1.2 (P54289 957-1103 partner limits assumed): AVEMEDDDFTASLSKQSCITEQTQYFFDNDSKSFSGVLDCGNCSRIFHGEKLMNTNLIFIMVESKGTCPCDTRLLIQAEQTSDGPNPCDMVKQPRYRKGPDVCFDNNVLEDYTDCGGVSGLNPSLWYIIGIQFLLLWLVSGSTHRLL
# T1 sequence (Q12809 whole entry): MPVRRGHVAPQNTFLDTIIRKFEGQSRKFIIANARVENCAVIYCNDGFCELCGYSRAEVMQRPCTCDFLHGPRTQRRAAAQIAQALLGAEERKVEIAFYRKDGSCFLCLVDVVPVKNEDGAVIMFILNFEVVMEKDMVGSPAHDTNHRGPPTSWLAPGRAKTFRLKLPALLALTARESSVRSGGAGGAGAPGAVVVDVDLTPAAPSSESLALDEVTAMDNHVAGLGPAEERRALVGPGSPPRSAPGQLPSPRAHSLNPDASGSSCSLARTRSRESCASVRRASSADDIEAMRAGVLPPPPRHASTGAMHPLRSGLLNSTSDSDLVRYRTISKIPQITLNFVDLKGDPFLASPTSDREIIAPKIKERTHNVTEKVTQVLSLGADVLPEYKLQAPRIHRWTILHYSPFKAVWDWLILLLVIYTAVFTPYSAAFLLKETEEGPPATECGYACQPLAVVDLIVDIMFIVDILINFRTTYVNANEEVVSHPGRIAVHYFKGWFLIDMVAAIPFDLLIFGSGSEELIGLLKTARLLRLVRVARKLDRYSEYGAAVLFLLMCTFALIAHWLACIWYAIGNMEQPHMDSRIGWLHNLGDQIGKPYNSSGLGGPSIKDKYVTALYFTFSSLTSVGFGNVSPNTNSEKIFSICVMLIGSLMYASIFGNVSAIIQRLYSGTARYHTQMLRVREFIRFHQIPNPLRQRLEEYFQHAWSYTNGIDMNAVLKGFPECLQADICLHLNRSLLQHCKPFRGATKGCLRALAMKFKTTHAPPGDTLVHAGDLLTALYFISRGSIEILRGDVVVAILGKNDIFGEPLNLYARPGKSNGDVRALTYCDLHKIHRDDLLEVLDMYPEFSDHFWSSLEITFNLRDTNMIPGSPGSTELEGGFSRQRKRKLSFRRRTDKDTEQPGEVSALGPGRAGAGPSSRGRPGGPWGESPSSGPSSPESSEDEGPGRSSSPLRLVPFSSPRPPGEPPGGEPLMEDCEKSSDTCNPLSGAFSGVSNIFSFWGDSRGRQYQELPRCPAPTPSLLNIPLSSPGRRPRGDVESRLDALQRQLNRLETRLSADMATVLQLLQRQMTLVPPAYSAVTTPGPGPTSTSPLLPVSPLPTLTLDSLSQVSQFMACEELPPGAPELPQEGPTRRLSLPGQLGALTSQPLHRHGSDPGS
smiles,measurement,setting,value
O=c1[nH]c2ccccc2n1C1CCN(CCCC(c2ccc(F)cc2)c2ccc(F)cc2)CC1 [pimozide],difference of hERG IC50 between two manual patch clamp laboratories,hERG [1],44 fold
"COc1cc(N)c(Cl)cc1C(=O)NC1CCN(CCCOc2ccc(F)cc2)CC1OC (stereo not drawn) [cis, cisapride]","log IC50, late hNav1.5 inhibition",late hNav1.5; site_platform s06_p4,no inh.
same,"Late hNav1.5 Na+ current inhibition, Mean",late hNav1.5; [4],-0.7%
same,"Late hNav1.5 Na+ current inhibition, Mean",late hNav1.5; [5],31.8%
same,"log IC50, late hNav1.5 inhibition",late hNav1.5; site_platform s07_p6,no inh.
same,"Late hNav1.5 Na+ current inhibition, Mean",late hNav1.5; [6],4.3%
same,"Late hNav1.5 Na+ current inhibition, Mean",late hNav1.5; [7],-17.0%
same,"log IC50, late hNav1.5 inhibition",late hNav1.5; site_platform s13_p2,no inh.
same,"Late hNav1.5 Na+ current inhibition, Mean",late hNav1.5; [8],-16.7%
same,"Late hNav1.5 Na+ current inhibition, Mean","late hNav1.5; site_platform s13_p2, 3.00E-07 mol/L",7.2%
same,"log IC50, late hNav1.5 inhibition",late hNav1.5; site_platform s14_p1,no inh.
same,"Late hNav1.5 Na+ current inhibition, Mean","late hNav1.5; site_platform s14_p1, 1.00E-09 mol/L",-6.9%
same,"Late hNav1.5 Na+ current inhibition, Mean",late hNav1.5; [9],-6.3%
same,TdP Risk Category,[2],Intermediate
same,peak hNav1.5 Na+ current inhibition (result in words),"peak hNav1.5; no inhibition = no obvious concentration-dependent current block and/or no curve fitting performed, all sites",no inhibition
same,"log IC50, peak hNav1.5 Na+ current inhibition",peak hNav1.5; site_platform s01_p1,no inh.
same,"Peak hNav1.5 Na+ current inhibition, Mean","peak hNav1.5; site_platform s01_p1, 1.00E-09 mol/L",55.1%
same,"Peak hNav1.5 Na+ current inhibition, Mean","peak hNav1.5; site_platform s01_p1, 3.00E-07 mol/L",41.7%
same,"log IC50, peak hNav1.5 Na+ current inhibition",peak hNav1.5; site_platform s02_p2,no inh.
same,"Peak hNav1.5 Na+ current inhibition, Mean","peak hNav1.5; site_platform s02_p2, 1.00E-09 mol/L",0.1%
same,"Peak hNav1.5 Na+ current inhibition, Mean","peak hNav1.5; site_platform s02_p2, 3.00E-07 mol/L",4.3%
same,"log IC50, peak hNav1.5 Na+ current inhibition",peak hNav1.5; site_platform s04_p3,no inh.
same,"Peak hNav1.5 Na+ current inhibition, Mean","peak hNav1.5; site_platform s04_p3, 1.00E-09 mol/L",1.4%
same,"Peak hNav1.5 Na+ current inhibition, Mean","peak hNav1.5; site_platform s04_p3, 3.00E-07 mol/L",9.8%
same,"log IC50, peak hNav1.5 Na+ current inhibition",peak hNav1.5; site_platform s06_p4,no inh.
same,"Peak hNav1.5 Na+ current inhibition, Mean",peak hNav1.5; [4],-1.5%
same,"Peak hNav1.5 Na+ current inhibition, Mean",peak hNav1.5; [5],6.3%
same,"log IC50, peak hNav1.5 Na+ current inhibition",peak hNav1.5; site_platform s07_p6,no inh.
same,"Peak hNav1.5 Na+ current inhibition, Mean",peak hNav1.5; [6],3.2%
same,"Peak hNav1.5 Na+ current inhibition, Mean",peak hNav1.5; [7],12.5%
same,"log IC50, peak hNav1.5 inhibition",peak hNav1.5; site_platform s10_p3,no inh.
same,"Peak hNav1.5 Na+ current inhibition, Mean","peak hNav1.5; site_platform s10_p3, 1.00E-09 mol/L",-1.1%
same,"Peak hNav1.5 Na+ current inhibition, Mean","peak hNav1.5; site_platform s10_p3, 3.00E-07 mol/L",11.3%
same,"log IC50, peak hNav1.5 inhibition",peak hNav1.5; site_platform s11_p1,no inh.
same,"Peak hNav1.5 Na+ current inhibition, Mean","peak hNav1.5; site_platform s11_p1, 1.00E-09 mol/L",8.6%
same,"Peak hNav1.5 Na+ current inhibition, Mean","peak hNav1.5; site_platform s11_p1, 3.00E-07 mol/L",10.0%
same,"log IC50, peak hNav1.5 inhibition",peak hNav1.5; site_platform s12_p2,no inh.
same,"Peak hNav1.5 Na+ current inhibition, Mean","peak hNav1.5; site_platform s12_p2, 1.00E-09 mol/L",-0.2%
same,"Peak hNav1.5 Na+ current inhibition, Mean","peak hNav1.5; site_platform s12_p2, 3.00E-07 mol/L",6.8%
same,"log IC50, peak hNav1.5 inhibition",peak hNav1.5; site_platform s13_p2,no inh.
same,"Peak hNav1.5 Na+ current inhibition, Mean",peak hNav1.5; [8],-1.8%
same,"log IC50, peak hNav1.5 inhibition",peak hNav1.5; site_platform s14_p1,no inh.
same,"Peak hNav1.5 Na+ current inhibition, Mean",peak hNav1.5; [9],-0.4%
same,"log IC50, peak hNav1.5 inhibition",peak hNav1.5; site_platform s15_p1,no inh.
same,"Peak hNav1.5 Na+ current inhibition, Mean","peak hNav1.5; site_platform s15_p1, 1.00E-09 mol/L",10.3%
same,"Peak hNav1.5 Na+ current inhibition, Mean","peak hNav1.5; site_platform s15_p1, 3.00E-07 mol/L",21.4%
same,"log IC50, peak hNav1.5 inhibition",peak hNav1.5; site_platform s16_p3,no inh.
same,"Peak hNav1.5 Na+ current inhibition, Mean","peak hNav1.5; site_platform s16_p3, 1.00E-09 mol/L",3.1%
same,"Peak hNav1.5 Na+ current inhibition, Mean","peak hNav1.5; site_platform s16_p3, 3.00E-07 mol/L",13.4%
same,"log IC50, peak hNav1.5 inhibition",peak hNav1.5; site_platform s17_p1,no inh.
same,"Peak hNav1.5 Na+ current inhibition, Mean","peak hNav1.5; site_platform s17_p1, 3.00E-07 mol/L",1.3%
same,"log IC50, peak hNav1.5 inhibition",peak hNav1.5; site_platform s18_p1,no inh.
same,"Peak hNav1.5 Na+ current inhibition, Mean","peak hNav1.5; site_platform s18_p1, 1.00E-09 mol/L",-22.5%
same,"Peak hNav1.5 Na+ current inhibition, Mean","peak hNav1.5; site_platform s18_p1, 3.00E-07 mol/L",1.0%
same,"log IC50, peak hNav1.5 inhibition",peak hNav1.5; site_platform s19_p3,no inh.
same,"Peak hNav1.5 Na+ current inhibition, Mean","peak hNav1.5; site_platform s19_p3, 1.00E-09 mol/L",6.7%
same,"Peak hNav1.5 Na+ current inhibition, Mean","peak hNav1.5; site_platform s19_p3, 3.00E-07 mol/L",20.0%
same,"inhibition at 4 min, 1e-09 mol/L",hERG [3],7.2%
same,"inhibition at 4 min, 3e-07 mol/L",hERG [3],68.5%
same,"inhibition at 7 min, 1e-09 mol/L",hERG [3],12%
same,IC50,"hCav1.2; log IC50, half-maximal inhibitory concentration, site s16_p3",447 nM
same,"log IC50, half-maximal inhibitory concentration",hCav1.2; site s01_p1,no inh.
same,"Peak hCav1.2 Ca2+ current inhibition, Mean","hCav1.2; site s01_p1, 1.00E-09 mol/L",7.4%
same,"Peak hCav1.2 Ca2+ current inhibition, Mean","hCav1.2; site s01_p1, 3.00E-07 mol/L",8.1%
same,"log IC50, half-maximal inhibitory concentration","hCav1.2; site s02_p2, corrected for rundown",no inh.
same,"Peak hCav1.2 Ca2+ current inhibition, Mean","hCav1.2; site s02_p2, corrected for rundown, 1.00E-09 mol/L",-5.7%
same,"Peak hCav1.2 Ca2+ current inhibition, Mean","hCav1.2; site s02_p2, corrected for rundown, 3.00E-07 mol/L",14.5%
same,"log IC50, half-maximal inhibitory concentration",hCav1.2; site s06_p4,no inh.
same,"Peak hCav1.2 Ca2+ current inhibition, Mean","hCav1.2; site s06_p4, 1.00E-09 mol/L",-8.1%
same,"Peak hCav1.2 Ca2+ current inhibition, Mean","hCav1.2; site s06_p4, 3.00E-07 mol/L",-6.0%
same,"log IC50, half-maximal inhibitory concentration",hCav1.2; site s11_p1,no inh.
same,"Peak hCav1.2 Ca2+ current inhibition, Mean","hCav1.2; site s11_p1, 1.00E-09 mol/L",7.8%
same,"Peak hCav1.2 Ca2+ current inhibition, Mean","hCav1.2; site s11_p1, 3.00E-07 mol/L",10.4%
same,"log IC50, half-maximal inhibitory concentration",hCav1.2; site s14_p1,no inh.
same,"Peak hCav1.2 Ca2+ current inhibition, Mean","hCav1.2; site s14_p1, 1.00E-09 mol/L",-10.3%
same,"Peak hCav1.2 Ca2+ current inhibition, Mean","hCav1.2; site s14_p1, 3.00E-07 mol/L",-19.9%
same,"nH, Hill slope",hCav1.2; site s16_p3,0.24
same,"Peak hCav1.2 Ca2+ current inhibition, Mean","hCav1.2; site s16_p3, 1.00E-09 mol/L",20.1%
same,"Peak hCav1.2 Ca2+ current inhibition, Mean","hCav1.2; site s16_p3, 3.00E-07 mol/L",49.1%
same,"log IC50, half-maximal inhibitory concentration",hCav1.2; site s18_p1,no inh.
same,"Peak hCav1.2 Ca2+ current inhibition, Mean","hCav1.2; site s18_p1, 1.00E-09 mol/L",2.8%
same,"Peak hCav1.2 Ca2+ current inhibition, Mean","hCav1.2; site s18_p1, 3.00E-07 mol/L",-16.5%
